PubChem BioAssay AID248 (DTP/NCI, 2004)
Where “and” joins values, the source holds several entries; their conditions need not be identical. Equal values may be shown once. Toxic doses and inconclusive results are not listed.

System: L1210 leukemia ip in BDF1 mice, survival T/C
Experiment: NCI In Vivo Anticancer Drug Screen. Data for tumor model L1210 Leukemia (intraperitoneal) in B6D2F1 (BDF1) mice
Settings: higher = longer survival
Method in brief: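 Transplanted-tumor mice were given test agent; controls received vehicle only. Survival readings from the two groups were divided (treated over control).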

[1] = endpoint: mean survival time, dose: 200.0 mg/kg/injection, schedule: Q04DX003 (ip), vehicle: saline with Tween-80
[2] = endpoint: mean survival time, dose: 400.0 mg/kg/injection, schedule: Q04DX003 (ip), vehicle: saline with Tween-80

With `S=P(N1CC1)(N1CC1)N1CC1` the T/C (endpoint: mean survival time, dose: 0.19 mg/kg/injection, schedule: Q01DX009 (ip), vehicle: saline) was 103 % of control and 104 % of control, the T/C (endpoint: mean survival time, dose: 0.3 mg/kg/injection, schedule: Q01DX Z (ip), vehicle: carboxymethylcellulose (CMC)) was 106 % of control and the T/C (endpoint: mean survival time, dose: 0.38 mg/kg/injection, schedule: Q01DX009 (ip), vehicle: saline) was 104 % of control and 111 % of control. For the same compound, the T/C (endpoint: mean survival time, dose: 0.6 mg/kg/injection, schedule: Q01DX Z (ip), vehicle: carboxymethylcellulose (CMC)) was 101 % of control, the T/C (endpoint: mean survival time, dose: 0.75 mg/kg/injection, schedule: Q01DX009 (ip), vehicle: saline) was 107 % of control and 120 % of control and the T/C (endpoint: mean survival time, dose: 1.0 mg/kg/injection, schedule: Q01DX001 (ip), vehicle: saline) was 95 % of control (2×) and 119 % of control. For the same compound, the T/C (endpoint: mean survival time, dose: 1.0 mg/kg/injection, schedule: Q01DX001 (oral), vehicle: saline) was 98 % of control and 105 % of control, the T/C (endpoint: mean survival time, dose: 1.0 mg/kg/injection, schedule: Q01DX009 (ip), vehicle: saline) was 98 % of control and 119 % of control and the T/C (endpoint: mean survival time, dose: 1.0 mg/kg/injection, schedule: Q04DX002 (ip), vehicle: saline) was 102 % of control and 121 % of control. For the same compound, the T/C (endpoint: mean survival time, dose: 1.0 mg/kg/injection, schedule: Q04DX003 (ip), vehicle: saline) was 96 % of control and 104 % of control and 116 % of control, the T/C (endpoint: mean survival time, dose: 1.2 mg/kg/injection, schedule: Q01DX Z (ip), vehicle: carboxymethylcellulose (CMC)) was 109 % of control and the T/C (endpoint: mean survival time, dose: 1.25 mg/kg/injection, schedule: Q01DX Z (ip), vehicle: saline) was 118 % of control. For the same compound, the T/C (endpoint: mean survival time, dose: 1.5 mg/kg/injection, schedule: Q01DX010 (oral), vehicle: carboxymethylcellulose (CMC)) was 113 % of control, the T/C (endpoint: mean survival time, dose: 1.56 mg/kg/injection, schedule: Q01DX009 (ip), vehicle: saline) was 102 % of control and 117 % of control and the T/C (endpoint: mean survival time, dose: 1.65 mg/kg/injection, schedule: Q01DX001 (ip), vehicle: saline) was 104 % of control. The T/C (endpoint: mean survival time, dose: 2.0 mg/kg/injection, schedule: Q01DX001 (ip), vehicle: saline) was 97 % of control and 103 % of control and 114 % of control, the T/C (endpoint: mean survival time, dose: 2.0 mg/kg/injection, schedule: Q01DX001 (oral), vehicle: saline) was 98 % of control and 102 % of control and the T/C (endpoint: mean survival time, dose: 2.0 mg/kg/injection, schedule: Q01DX009 (ip), vehicle: saline) was 108 % of control. For the same compound, the T/C (endpoint: mean survival time, dose: 2.0 mg/kg/injection, schedule: Q04DX002 (ip), vehicle: saline) was 101 % of control and 107 % of control, the T/C (endpoint: mean survival time, dose: 2.0 mg/kg/injection, schedule: Q04DX003 (ip), vehicle: saline) was 102 % of control and 109 % of control and 116 % of control and the T/C (endpoint: mean survival time, dose: 2.4 mg/kg/injection, schedule: Q01DX Z (ip), vehicle: carboxymethylcellulose (CMC)) was 121 % of control and 123 % of control. For the same compound, the T/C (endpoint: mean survival time, dose: 2.5 mg/kg/injection, schedule: Q01DX001 (ip), vehicle: saline) was 110 % of control, the T/C (endpoint: mean survival time, dose: 2.5 mg/kg/injection, schedule: Q01DX Z (ip), vehicle: saline) was 120 % of control and the T/C (endpoint: mean survival time, dose: 3.0 mg/kg/injection, schedule: Q01DX001 (ip), vehicle: saline) was 106 % of control. For the same compound, the T/C (endpoint: mean survival time, dose: 3.0 mg/kg/injection, schedule: Q01DX010 (oral), vehicle: carboxymethylcellulose (CMC)) was 115 % of control, the T/C (endpoint: mean survival time, dose: 3.6 mg/kg/injection, schedule: Q01DX Z (ip), vehicle: carboxymethylcellulose (CMC)) was 118 % of control and the T/C (endpoint: mean survival time, dose: 3.8 mg/kg/injection, schedule: Q01DX001 (ip), vehicle: saline) was 110 % of control. For the same compound, the T/C (endpoint: mean survival time, dose: 4.0 mg/kg/injection, schedule: Q01DX001 (ip), vehicle: saline) was 97 % of control and 106 % of control and 111 % of control, the T/C (endpoint: mean survival time, dose: 4.0 mg/kg/injection, schedule: Q01DX001 (oral), vehicle: saline) was 101 % of control and 105 % of control and the T/C (endpoint: mean survival time, dose: 4.0 mg/kg/injection, schedule: Q01DX009 (ip), vehicle: saline) was 160 % of control and 161 % of control and 191 % of control. The T/C (endpoint: mean survival time, dose: 5.0 mg/kg/injection, schedule: Q01DX Z (ip), vehicle: saline) was 102 % of control, the T/C (endpoint: mean survival time, dose: 5.7 mg/kg/injection, schedule: Q01DX001 (ip), vehicle: saline) was 111 % of control and the T/C (endpoint: mean survival time, dose: 6.0 mg/kg/injection, schedule: Q01DX001 (ip), vehicle: saline) was 113 % of control and 123 % of control. For the same compound, the T/C (endpoint: mean survival time, dose: 6.25 mg/kg/injection, schedule: Q01DX009 (ip), vehicle: saline) was 178 % of control, the T/C (endpoint: mean survival time, dose: 7.5 mg/kg/injection, schedule: Q01DX001 (ip), vehicle: saline) was 106 % of control and 118 % of control and the T/C (endpoint: mean survival time, dose: 8.0 mg/kg/injection, schedule: Q01DX001 (oral), vehicle: saline) was 105 % of control and 117 % of control. The T/C (endpoint: mean survival time, dose: 8.0 mg/kg/injection, schedule: Q01DX009 (ip), vehicle: saline) was 107 % of control and 113 % of control, the T/C (endpoint: mean survival time, dose: 8.0 mg/kg/injection, schedule: Q04DX003 (ip), vehicle: saline) was 150 % of control and 179 % of control and the T/C (endpoint: mean survival time, dose: 8.7 mg/kg/injection, schedule: Q01DX001 (ip), vehicle: saline) was 161 % of control. The T/C (endpoint: mean survival time, dose: 11.0 mg/kg/injection, schedule: Q01DX001 (ip), vehicle: saline) was 122 % of control, the T/C (endpoint: mean survival time, dose: 12.0 mg/kg/injection, schedule: Q01DX009 (ip), vehicle: saline) was 95 % of control and 100 % of control and the T/C (endpoint: mean survival time, dose: 12.0 mg/kg/injection, schedule: Q01DX010 (oral), vehicle: carboxymethylcellulose (CMC)) was 166 % of control. The T/C (endpoint: mean survival time, dose: 12.5 mg/kg/injection, schedule: Q01DX009 (ip), vehicle: saline) was 118 % of control, the T/C (endpoint: mean survival time, dose: 14.0 mg/kg/injection, schedule: Q01DX001 (ip), vehicle: saline) was 109 % of control and the T/C (endpoint: mean survival time, dose: 15.0 mg/kg/injection, schedule: Q01DX001 (ip), vehicle: saline) was 163 % of control and 201 % of control. The T/C (endpoint: mean survival time, dose: 16.0 mg/kg/injection, schedule: Q01DX001 (oral), vehicle: saline) was 121 % of control, the T/C (endpoint: mean survival time, dose: 16.0 mg/kg/injection, schedule: Q04DX003 (ip), vehicle: saline) was 104 % of control and the T/C (endpoint: mean survival time, dose: 17.0 mg/kg/injection, schedule: Q01DX001 (ip), vehicle: saline) was 152 % of control and 155 % of control and 163 % of control. The T/C (endpoint: mean survival time, dose: 20.0 mg/kg/injection, schedule: Q01DX001 (ip), vehicle: saline) was 163 % of control, the T/C (endpoint: mean survival time, dose: 22.0 mg/kg/injection, schedule: Q01DX001 (ip), vehicle: saline) was 191 % of control and the T/C (endpoint: mean survival time, dose: 23.0 mg/kg/injection, schedule: Q01DX001 (ip), vehicle: saline) was 150 % of control. For the same compound, the T/C (endpoint: mean survival time, dose: 24.0 mg/kg/injection, schedule: Q01DX010 (oral), vehicle: carboxymethylcellulose (CMC)) was 152 % of control, the T/C (endpoint: mean survival time, dose: 32.0 mg/kg/injection, schedule: Q04DX002 (ip), vehicle: saline) was 94 % of control and the T/C (endpoint: median survival time, dose: 1.5 mg/kg/injection, schedule: Q01DX009 (ip), vehicle: distilled water + alcohol) was 103 % of control. The T/C (endpoint: median survival time, dose: 1.5 mg/kg/injection, schedule: Q01DX009 (ip), vehicle: other) was 94 % of control, the T/C (endpoint: median survival time, dose: 4.0 mg/kg/injection, schedule: Q01DX009 (ip), vehicle: water) was 151 % of control and the T/C (endpoint: median survival time, dose: 5.0 mg/kg/injection, schedule: Q01DX009 (ip), vehicle: water) was 108 % of control. The T/C (endpoint: median survival time, dose: 6.0 mg/kg/injection, schedule: Q01DX009 (ip), vehicle: water) was 110 % of control.

With `[B-][N+](C)(C)C` the T/C (endpoint: mean survival time, dose: 3.13 mg/kg/injection, schedule: Q01DX001 (ip), vehicle: Klucel (hydroxypropylcellulose) (HPC)) was 99 % of control, the T/C (endpoint: mean survival time, dose: 6.25 mg/kg/injection, schedule: Q01DX001 (ip), vehicle: Klucel (hydroxypropylcellulose) (HPC)) was 101 % of control and the T/C (endpoint: mean survival time, dose: 12.5 mg/kg/injection, schedule: Q01DX001 (ip), vehicle: Klucel (hydroxypropylcellulose) (HPC)) was 99 % of control. For the same compound, the T/C (endpoint: mean survival time, dose: 25.0 mg/kg/injection, schedule: Q01DX001 (ip), vehicle: Klucel (hydroxypropylcellulose) (HPC)) was 106 % of control, the T/C (endpoint: mean survival time, dose: 50.0 mg/kg/injection, schedule: Q01DX001 (ip), vehicle: Klucel (hydroxypropylcellulose) (HPC)) was 109 % of control and the T/C (endpoint: mean survival time, dose: 100.0 mg/kg/injection, schedule: Q01DX001 (ip), vehicle: Klucel (hydroxypropylcellulose) (HPC)) was 103 % of control.

`C(=Nc1ccc2c(c1)Cc1ccccc1-2)c1ccnc2ccccc12` was tested, and the T/C (endpoint: mean survival time, dose: 100.0 mg/kg/injection, schedule: Q01DX009 (ip), vehicle: Klucel (hydroxypropylcellulose) (HPC)) was 97 % of control, the T/C (endpoint: mean survival time, dose: 100.0 mg/kg/injection, schedule: Q04DX003 (ip), vehicle: Klucel (hydroxypropylcellulose) (HPC)) was 92 % of control and the T/C (endpoint: mean survival time, dose: 200.0 mg/kg/injection, schedule: Q01DX009 (ip), vehicle: Klucel (hydroxypropylcellulose) (HPC)) was 100 % of control. For the same compound, the T/C (endpoint: mean survival time, dose: 200.0 mg/kg/injection, schedule: Q04DX003 (ip), vehicle: Klucel (hydroxypropylcellulose) (HPC)) was 90 % of control, the T/C (endpoint: mean survival time, dose: 400.0 mg/kg/injection, schedule: Q01DX009 (ip), vehicle: Klucel (hydroxypropylcellulose) (HPC)) was 97 % of control and the T/C (endpoint: mean survival time, dose: 400.0 mg/kg/injection, schedule: Q04DX003 (ip), vehicle: Klucel (hydroxypropylcellulose) (HPC)) was 94 % of control.

With `CCN(CC)C(=S)Oc1ccc(OC(=S)N(CC)CC)cc1` the T/C (endpoint: mean survival time, dose: 12.5 mg/kg/injection, schedule: Q04DX002 (ip), vehicle: saline with Tween-80) was 93 % of control, the T/C (endpoint: mean survival time, dose: 25.0 mg/kg/injection, schedule: Q04DX002 (ip), vehicle: saline with Tween-80) was 97 % of control and the T/C (endpoint: mean survival time, dose: 50.0 mg/kg/injection, schedule: Q04DX002 (ip), vehicle: saline with Tween-80) was 93 % of control. The T/C [1] was 89 % of control and the T/C [2] was 91 % of control.

In the case of `Cc1cc(O)cc(C)c1Cl`, the T/C (endpoint: mean survival time, dose: 100.0 mg/kg/injection, schedule: Q01DX009 (ip), vehicle: saline with Tween-80) is reported as 91 % of control, the T/C (endpoint: mean survival time, dose: 100.0 mg/kg/injection, schedule: Q04DX003 (ip), vehicle: saline with Tween-80) is reported as 92 % of control and the T/C (endpoint: mean survival time, dose: 200.0 mg/kg/injection, schedule: Q01DX009 (ip), vehicle: saline with Tween-80) is reported as 92 % of control. For the same compound, the T/C [1] was 96 % of control, the T/C (endpoint: mean survival time, dose: 400.0 mg/kg/injection, schedule: Q01DX009 (ip), vehicle: saline with Tween-80) was 89 % of control and the T/C [2] was 96 % of control.
